# Columns and labels:
# [1] = test system: human breast cancer cell line T47D (estrogen receptor positive); assay: In vitro cytotoxicity assay (CCK-8), T47D; assay type: cell-based; settings: T47D cells, 48 hours incubation, read-out: 50% inhibition of cell growth concentration (IC50)
# Description: (§1) Materials: DMEM (medium), RPMI (medium), L-glutamine, penicillin, streptomycin and FBS (fetal bovine serum) were obtained from Gibco (NY, USA). Culture plasticware was purchased from Corning (MA, USA). […] All other chemicals used were of reagent grade and were purchased from Sigma or E. Merck (Germany).
# (§2) Cell lines and cell cultures: The human breast cancer cell lines T47D and MDA-MB231 were obtained from American Type Culture Collection (ATCC). Of both cancer cells, T47D is estrogen receptor positive, and MDA-MB231 is estrogen receptor negative. Cells were cultured at 37° C. in RPMI medium containing 10% charcoal-dextran stripped fetal bovine serum for T47D cells and in DMEM medium containing 10% charcoal-dextran stripped fetal bovine serum for MDA-MB231 cells with 5% CO2. The cell proliferation was determined by counting the viable cells with trypan blue exclusion.
# (§3) Cytotoxicity assay: Dispense 198 μl of cell suspension (20,000 cells for T47D per well and 10,000 cell for MDA-MB231 per well) in a 96-well plate and pre-incubate the plate for 24 hours in an incubator at 37° C. with humidified 5% CO2. […] After plate was incubated for 48 hours in the incubator, media were aspirated of and new media (100 μl) were added and incubated for 1 more hour. […] Measure the absorbance at 450 nm using a ELISA reader.
# [2] = test system: human breast cancer cell line MDA-MB231 (estrogen receptor negative); assay: In vitro cytotoxicity assay (CCK-8), MDA-MB231; assay type: cell-based; settings: MDA-MB-231, MDA-MB231 cells, 48 hours incubation, read-out: 50% inhibition of cell growth concentration (IC50)
# Description: as §1, §2, §3
# [3] = test system: ovariectomized female Wistar rats (osteoporosis caused by estrogen deficiency); assay: Ovariectomized rat osteoporosis model, bone histomorphometry of proximal tibia; assay type: in vivo; settings: two months, mean value; for Erosion surface (ES/BS, %) of proximal tibia: OVX group 5.8%, Sham 4.7%; for Bone volume % (BV/TV) of proximal tibia head trabecular bone: OVX group 12.50%, Sham 29.50%
# Description: The purpose of this example is to show the potency of bakuchiol in treating osteoporosis, wherein ovary of a female rat is removed to stimulate osteoporosis caused by estrogen deficiency. The female Wistar rats of 16 weeks old (unless specified in the other experiment description) were obtained from the stock reared by the Animal breeding center, National Scientific Council in Taipei. These rats were grouped by weights matched in order to distribute the physiological response variation from rats evenly into each group. These rats were grouping as follows: • Baseline group fed with no drug added food (n=8) • Sham operation group fed with no drug added food (Sham) (n=10) • Ovariectomy operation group fed with no drug added food (OVX) (n=8) • Ovariectomy operation group fed with Drug A (5 mg/kg) added food (OVX+A) (n=9) • Ovariectomy operation group fed with Drug B (15 mg/kg) added food (OVX+B) (n=9) Ovariectomy (removal of ovaries) operation: Ovariectomy was induced using a protocol similar to that described by Wronski et al (Wronski et al, Endocrinology, 123(2), 681-86 (1988)). During the experiments, the rats were housed in hanging grid cages in groups of two at 21° C. with a 12 hours dark cycle. Food (Rat-mouse diet III, adequate in 1% of calcium content and 1.2% of phosphate content, Purina, USA) was administered by paired feeding between the experimental and control groups. Pair-feeding was carried out by calculating the average amount of food intake in the Sham group. So give the same amount of food to the OVX, OVX+A (5 mg/kg), OVX+B (15 mg/kg) group animals the following day. These animals were fed with a period of two months except for the baseline group which were killed on the very day of doing ovariectomy or sham operation. Rats of OVX+A and OVX+B groups were fed with the usual food chuck but added certain amount of compound A and B in it respectively. Water was given ad libitum to all rats. The test drug was weighted according to dose of 5 mg/kg and 15 mg/kg, and added into the ususal food chuck powder and mixed with 10% starch paste. After fully mixed, these chuck powder were made into mass manually and dried by air flow oven. The food with added drug to rats was performed by single blind method. These labeling and bone histomorphometry assessment were done based on standard procedure in bone research (Lin et al, Calcif. Tissue Int., 67, 373-377 (2000)). Specimen were prestained with Villanueva bone stain, then […] and embedded in London resin. Undecalcified sections of 7 μm thick were cut using Jung-K microtome (Leica Ltd, USA) and treated with Villanueva stain for observation under light microscopy. Seven μm thick unstained sections were prepared for fluorescent microscopy and assessed with program Osteomeasure (3.0 version, Atlanta, USA). […]
# [4] = test system: ovariectomized female Wistar rats (osteoporosis caused by estrogen deficiency); assay: Ovariectomized rat osteoporosis model, apparent bone density of tibia; assay type: in vivo; settings: two months, mean value, OVX group 1.549, Sham 1.589
# Description: The purpose of this example is to show the potency of bakuchiol in treating osteoporosis, wherein ovary of a female rat is removed to stimulate osteoporosis caused by estrogen deficiency.
# The female Wistar rats of 16 weeks old (unless specified in the other experiment description) were obtained from the stock reared by the Animal breeding center, National Scientific Council in Taipei. These rats were grouped by weights matched in order to distribute the physiological response variation from rats evenly into each group. These rats were grouping as follows: • Baseline group fed with no drug added food (n=8) • Sham operation group fed with no drug added food (Sham) (n=10) • Ovariectomy operation group fed with no drug added food (OVX) (n=8) • Ovariectomy operation group fed with Drug A (5 mg/kg) added food (OVX+A) (n=9) • Ovariectomy operation group fed with Drug B (15 mg/kg) added food (OVX+B) (n=9)
# Ovariectomy (removal of ovaries) operation: Ovariectomy was induced using a protocol similar to that described by Wronski et al (Wronski et al, Endocrinology, 123(2), 681-86 (1988)). […]
# The whole tibia and femur were stripped off attached muscles and ligaments after sacrifice. […] The weight of bone measured in the air was marked as W-air. […] The apparent bone density was calculated as [W-air/(W-air minus W-water)] […]
# [5] = test system: five different human cancer cells: lung (A549), ovary (SK-OV-3), skin (SK-MEL-2), central nervous system (XF498), large intestine (HCT); settings: five human cancer cells A549, SK-OV-3, SK-MEL-2, XF498, HCT; Arch. Pharm. Res. 15, 356-359 (1992); cited from earlier work
# [6] = OVX + B group, 15 mg/kg in food
structure (smiles),measurement,setting,value
"C=C[C@@](C)(/C=C/c1ccc(O)cc1)CCC=C(C)C [Bakuchiol, bakuchiol]",IC50,[1],5 µg/mL
same,IC50,[2],0.62 µg/mL
same,"Erosion surface (ES/BS, %) of proximal tibia","[3]; OVX + A group, 5 mg/kg in food",5.0%
same,Bone volume % (BV/TV) of proximal tibia head trabecular bone,"[3]; OVX + A group, 5 mg/kg in food",19.80%
same,"Erosion surface (ES/BS, %) of proximal tibia",[3]; [6],4.8%
same,Bone volume % (BV/TV) of proximal tibia head trabecular bone,[3]; [6],20.11%
same,Bone apparent density of tibia,"[4]; OVX + A group, 5 mg/kg in food",1.582 gm/cm^3
same,Bone apparent density of tibia,[4]; [6],1.587 gm/cm^3
same,average inhibitory concentration (IC50),[5],10˜15 μg/cc
